The text below walks through data of patent US9840515B2, “Protein kinase D inhibitors” (University of Pittsburgh—Of the Commonwealth System of …, priority 2010, dated 2017).

Data set [1] has as its target T1, PKD1 (Homo sapiens, UniProt Q15139).
T1 sequence (Q15139 1-912): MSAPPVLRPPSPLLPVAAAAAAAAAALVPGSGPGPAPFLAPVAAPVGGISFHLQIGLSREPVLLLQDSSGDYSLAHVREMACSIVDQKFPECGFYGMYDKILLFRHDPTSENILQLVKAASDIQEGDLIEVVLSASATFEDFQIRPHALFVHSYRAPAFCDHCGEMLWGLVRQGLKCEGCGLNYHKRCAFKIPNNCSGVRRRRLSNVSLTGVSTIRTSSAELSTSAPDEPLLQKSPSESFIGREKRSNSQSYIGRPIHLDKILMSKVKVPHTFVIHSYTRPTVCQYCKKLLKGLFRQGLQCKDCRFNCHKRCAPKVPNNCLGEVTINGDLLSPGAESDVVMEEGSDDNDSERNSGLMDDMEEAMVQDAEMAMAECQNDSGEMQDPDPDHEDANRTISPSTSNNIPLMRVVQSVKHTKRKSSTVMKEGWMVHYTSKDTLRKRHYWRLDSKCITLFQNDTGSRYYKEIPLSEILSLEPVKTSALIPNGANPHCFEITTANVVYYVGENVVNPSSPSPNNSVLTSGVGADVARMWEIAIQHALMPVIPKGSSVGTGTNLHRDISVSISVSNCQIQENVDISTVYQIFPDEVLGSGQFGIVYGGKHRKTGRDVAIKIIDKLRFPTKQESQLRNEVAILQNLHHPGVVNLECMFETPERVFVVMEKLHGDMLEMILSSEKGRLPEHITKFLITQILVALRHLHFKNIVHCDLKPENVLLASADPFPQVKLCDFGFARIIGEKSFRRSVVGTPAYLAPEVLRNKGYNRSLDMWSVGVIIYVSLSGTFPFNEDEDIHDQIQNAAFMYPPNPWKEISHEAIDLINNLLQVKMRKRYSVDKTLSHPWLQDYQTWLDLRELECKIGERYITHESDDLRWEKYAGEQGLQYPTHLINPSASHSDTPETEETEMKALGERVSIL
Nature of the data set: Cellular inhibition of PMA-induced PKD1 S916 autophosphorylation in LNCaP cells (Western blot densitometry). Set-up: endogenous in cells; host or cells: LNCaP prostate cancer cells. It counts as cell-based. The conditions noted are these: for IC50: PKD1 autophosphorylation at S916 in LNCaP cells. How it is done:
The compound to be tested was dissolved in DMSO at an initial concentration of 10 mM. LNCaP prostate cancer cells were pre-treated with DMSO or increasing concentrations of the compound for 45 min, followed by treatment with or without 100 nM phorbol 12-myristate 13-acetate (PMA), an activator of PKD, for 20 min. The cells were harvested for Western blot analysis.
Briefly, cells were lysed in lysis buffer containing 200 mM Tris-HCl, pH 7.4, 100 μM 4-(2-aminoethyl)benzenesulfonyl fluoride, 1 mM EGTA, and 1% Triton X-100. Protein concentration was determined using the BCA Protein Concentration Assay reagent kit (Pierce). Equal amounts of protein were subjected to SDS-PAGE followed by electrotransfer to nitrocellulose membranes. Membranes were blocked with 5% nonfat milk in Tris-buffered saline and then probed with primary antibodies for p-S916-PKD1 (Millipore), p-S744/748-PKD1 (Cell Signaling Technology), or GAPDH (Enzo), followed by anti-mouse or anti-rabbit secondary antibodies conjugated to horseradish peroxidase (Bio-Rad). The bands were detected by incubating with the enhanced chemiluminescence (ECL) Western blotting detection reagent (Amersham Biosciences) and exposing to X-ray films.
For orientation: In western blotting, separated proteins are transferred to a membrane and probed.

In a further data set the target is CAK (CDK7) (Homo sapiens, UniProt P50613). Nature of the data set: IMAP CAK TR-FRET counter-screen. Conditions: read-out: IC50 CAK(CDK7) (Ave ± SD). Format: biochemical. As for the experimental part:
(§1) Automated, highthroughput screening (HTS) formatted IMAP-based AKT fluorescent polarization assay (AKT FP), and PLK1 and CAK TR-FRET assays were used to assess the specificity of the PKD analogs as previously described. See Sharlow, E. R., et. al., J. Biol Chem, 283: 33516-33526, (2008). For the PLK2 IMAP TR-FRET assay, PLK2 kinase reactions were generated by the stepwise addition of a 3-fold excess concentration of substrate/ATP (1650 nM/105 μM), analog, and PLK2 enzyme (1.02 milliunits/μL). PLK2 kinase reactions were incubated for 150 min at room temperature and stopped with the addition of an IMAP binding reagent supplemented with terbium. Assay plates were then incubated overnight. Analysis was performed as described in the literature. Id.
(§2) The PLK2 substrate (FAM-[…]) was obtained from Molecular Devices (Sunnyvale, Calif.). H-89 was used as a positive inhibitory control compound in the assays. A 10 point concentration range for each compound to be tested was used to determine IC50 values. The maximum concentration of a particular compound used in this assay was either 50 μM, or 100 μM, depending on the solubility of the individual compounds. Each experiment was assayed in triplicate and data is represented as average IC50±SD. The IC50 determinations for each analog evaluated in the IMAP (PLK2, PLK1, CAK, and AKT) formats were conducted within the linear range of the captured signal readout.
(Time-resolved FRET reads energy transfer from a long-lived donor to a nearby acceptor.)

Another data set deals with PLK2 (Homo sapiens, UniProt Q9NYY3). Briefly: PLK2 IMAP TR-FRET counter-screen. Format: biochemical. The conditions noted are these: read-out: IC50 PLK2 (Ave ± SD). As for the experimental part: as §1, §2
The target in data set [2] is T2, purified recombinant human PKD1 (Homo sapiens, UniProt Q15139).
T2 sequence (Q15139 1-912): T1 sequence (Q15139 1-912)
Briefly: radiometric PKD kinase activity assay. Format: biochemical. As for the experimental part: The radiometric PKD kinase assay was carried out by co-incubating 0.5 μCi γ-32P-ATP (PerkinElmer, Boston, Mass.), 20 μM ATP, 50 ng purified recombinant human PKD (PKD1, PKD2, PKD3) proteins, and 2.5 μg Syntide-2 (Sigma) in 50 μl kinase buffer that contains 50 mM Tris-HCl, pH 7.5, 4 mM MgCl2, 10 mM β-mercaptoethanol. The reaction was carried out under sub-saturation conditions, such that the initial rate was within linear kinetic range. The reaction mixture was incubated at 30° C. for 10 min, followed by spotting 25 μl of the mix onto a Whatman P81 filter paper (Whatman Inc, Clifton, N.J.). The filter papers were then washed three times in 0.5% phosphoric acid, air-dried, and counted using a Beckman LS6500 multi-purpose scintillation counter (Beckman, Fullerton, Calif.).

In a further data set the target is PLK1 (Homo sapiens, UniProt P53350). Briefly: IMAP PLK1 TR-FRET counter-screen. The conditions noted are these: read-out: IC50 PLK1 (Ave ± SD). Format: biochemical. As for the experimental part: as §1, §2
In a further data set the test system is AKT. Briefly: IMAP-based AKT fluorescent polarization counter-screen. It counts as biochemical. Conditions: read-out: IC50 AKT (Ave ± SD). As for the experimental part: as §1, §2
A general note: A counterscreen serves to expose hits that act by an unwanted route or on another target.

Data set [3] in a line: stability in protic solvents. It counts as physicochemical.
In data set [4] the target is T1, PKD1. Nature of the data set: IMAP-FP PKD1 assay. It counts as biochemical. The text has this: See Sharlow, E. R., et. al., J Biol Chem, 283: 33516-33526, (2008). The assay established the concentration of inhibitor that is required to reduce PKD1 activity by 50% (IC50), as shown in Table 2 above.
Setting [5] is: radiometric kinase activity assay, in vitro, read-out: IC50 PKD1.
[6] abbreviates: read-out: IC50 radiometric PKD1.

Several values for one entry are separate records, joined by “and”; a condition that tells them apart may be missing. Equal values may be shown once. Entries after “also recorded” stand apart in the source; their conditions may differ. Read-outs that look alike come from different tables or passages of the source.

Chain of CAK (CDK7) (P50613 whole entry, species assumed): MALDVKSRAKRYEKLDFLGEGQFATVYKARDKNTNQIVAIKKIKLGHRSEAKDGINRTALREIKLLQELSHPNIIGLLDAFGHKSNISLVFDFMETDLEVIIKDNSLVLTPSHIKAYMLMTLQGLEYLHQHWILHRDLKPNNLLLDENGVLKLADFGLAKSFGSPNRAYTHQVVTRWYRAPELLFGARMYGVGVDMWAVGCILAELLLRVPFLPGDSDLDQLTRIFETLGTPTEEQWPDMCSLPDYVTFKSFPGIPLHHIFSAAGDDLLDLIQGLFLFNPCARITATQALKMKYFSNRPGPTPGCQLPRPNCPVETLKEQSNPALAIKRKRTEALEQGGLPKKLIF
Chain of CAK (CDK7) (P51946 whole entry partner, species assumed): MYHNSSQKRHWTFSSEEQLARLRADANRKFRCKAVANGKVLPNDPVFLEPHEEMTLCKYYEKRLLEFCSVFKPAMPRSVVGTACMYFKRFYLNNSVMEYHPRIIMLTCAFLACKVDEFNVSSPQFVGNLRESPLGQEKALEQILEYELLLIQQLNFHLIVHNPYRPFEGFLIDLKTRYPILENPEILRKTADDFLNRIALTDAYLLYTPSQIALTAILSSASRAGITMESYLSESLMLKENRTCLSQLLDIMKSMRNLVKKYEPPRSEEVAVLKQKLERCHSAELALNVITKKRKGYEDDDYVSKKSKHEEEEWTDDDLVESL
Chain of CAK (CDK7) (P51948 whole entry partner, species assumed): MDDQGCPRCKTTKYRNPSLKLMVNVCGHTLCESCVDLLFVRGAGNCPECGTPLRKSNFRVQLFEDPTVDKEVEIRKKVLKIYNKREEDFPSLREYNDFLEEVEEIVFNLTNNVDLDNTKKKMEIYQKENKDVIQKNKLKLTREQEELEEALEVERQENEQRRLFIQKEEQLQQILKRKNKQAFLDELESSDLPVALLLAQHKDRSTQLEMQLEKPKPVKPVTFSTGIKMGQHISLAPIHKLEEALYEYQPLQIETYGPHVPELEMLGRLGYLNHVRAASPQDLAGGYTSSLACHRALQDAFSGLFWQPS
Chain of PLK1 (P53350 whole entry, species assumed): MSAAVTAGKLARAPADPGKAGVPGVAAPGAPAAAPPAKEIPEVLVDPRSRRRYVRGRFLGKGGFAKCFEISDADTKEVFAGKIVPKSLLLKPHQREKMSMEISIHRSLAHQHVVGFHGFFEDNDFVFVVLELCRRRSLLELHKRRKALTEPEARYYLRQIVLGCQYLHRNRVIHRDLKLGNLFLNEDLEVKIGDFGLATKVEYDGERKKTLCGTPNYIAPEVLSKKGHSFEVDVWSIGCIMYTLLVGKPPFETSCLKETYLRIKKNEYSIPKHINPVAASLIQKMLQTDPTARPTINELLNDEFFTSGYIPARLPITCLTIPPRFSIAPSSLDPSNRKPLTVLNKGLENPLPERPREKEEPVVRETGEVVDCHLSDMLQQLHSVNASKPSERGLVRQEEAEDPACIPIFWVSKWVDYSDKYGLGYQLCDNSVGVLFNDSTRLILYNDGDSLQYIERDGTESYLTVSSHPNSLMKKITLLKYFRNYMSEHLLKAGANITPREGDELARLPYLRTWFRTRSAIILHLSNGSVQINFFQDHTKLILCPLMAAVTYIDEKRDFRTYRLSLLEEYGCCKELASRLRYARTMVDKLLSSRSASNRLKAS
Chain of PLK2 (Q9NYY3 whole entry, species assumed): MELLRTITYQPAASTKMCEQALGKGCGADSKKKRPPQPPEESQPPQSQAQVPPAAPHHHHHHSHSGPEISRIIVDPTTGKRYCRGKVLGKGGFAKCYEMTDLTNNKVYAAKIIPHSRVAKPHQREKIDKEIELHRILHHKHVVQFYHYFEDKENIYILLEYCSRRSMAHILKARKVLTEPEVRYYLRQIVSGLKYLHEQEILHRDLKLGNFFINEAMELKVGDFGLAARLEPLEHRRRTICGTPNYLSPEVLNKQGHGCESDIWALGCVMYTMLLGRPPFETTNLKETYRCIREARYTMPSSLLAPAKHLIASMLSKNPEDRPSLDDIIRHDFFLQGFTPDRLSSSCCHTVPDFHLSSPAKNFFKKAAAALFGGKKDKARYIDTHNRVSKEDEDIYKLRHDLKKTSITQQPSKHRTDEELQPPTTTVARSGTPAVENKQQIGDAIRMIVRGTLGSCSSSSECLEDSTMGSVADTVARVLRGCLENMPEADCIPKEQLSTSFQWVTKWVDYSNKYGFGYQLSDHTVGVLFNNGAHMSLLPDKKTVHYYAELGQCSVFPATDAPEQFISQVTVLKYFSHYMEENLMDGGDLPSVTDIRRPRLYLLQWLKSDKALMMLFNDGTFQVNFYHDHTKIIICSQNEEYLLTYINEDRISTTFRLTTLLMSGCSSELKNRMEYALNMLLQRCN

What is called IC50 is the concentration at which inhibition is half-maximal. As for `COc1ccc2sc3c(c2c1)SCCCNC3=O` [kb-NB184-02, 2,3,4,5-Tetrahydro-10-methoxybenzo[b]thieno[2,3-f]-1,5-thiazocin-6-one], the IC50 was 18600 ± 2000 nM against PKD1 [1]; 9 ± 4.1 µM at CAK (CDK7); more than 50 µM at PLK2; 193 ± 27 nM in data set [2] (setting [5]); 190 ± 30 nM in [2] (setting [6]); more than 50 µM on PLK1. The IC50 in the data set on AKT was more than 100 µM.
As usually defined, the melting point is the temperature, or range, at which the solid turns liquid. For the molecule `COc1ncc2sc3c(c2n1)SCCNC3=O` [kmg-NB4-23, 2-Methoxy-7H,8H,9H-1,4-thiazepino[7′,6′-5,4]thiopheno[3,2-d]pyrimidin-6-one], the melting point was 308 °C (dec.). In addition, at PKD1 [1], the IC50 was 6800 ± 1300 nM. In addition, on CAK (CDK7), the IC50 is more than 100 µM. Moreover, on PLK2, the IC50 is more than 100 µM. Further, in [2], the “PKD inhibition, in words” value is recorded as “potent nanomolar inhibitor”. Further, the IC50 in data set [2] (setting [5]) is 124 nM. The IC50 in data set [2] (setting [6]) turned out to be 120 ± 30 nM. In addition, at PLK1, the IC50 is more than 100 µM. The IC50 in the data set with AKT is more than 100 µM.
On to `[N-]=[N+]=Nc1ccc2sc3c(c2c1)SCCNC3=O` [mcf292-08, 3,4-Dihydro-9-azido-[1]benzothieno[2,3-f]-1,4-thiazepin-5(2H)-one], for which the melting point was 193 °C (dec.). Also, the concentration for half-maximal inhibition (IC50) at PKD1 [1] is 2200 nM and 2170 nM. Besides, the IC50 at CAK (CDK7) was more than 50 µM. For the same molecule, the IC50 at PLK2 is more than 50 µM. In data set [2] (setting [5]), the half-maximal inhibitory concentration (IC50) was found to be 74.9 nM. In addition, the IC50 in data set [2] (setting [6]) amounted to 80 ± 10 nM. At PLK1, the IC50 is more than 50 µM. Also, the IC50 in the data set with AKT was more than 50 µM.
`O=C1NCCSc2c1sc1cnc(O)nc21` [kmg-NB4-69A, 2-Hydroxy-7H,8H,9H-1,4-thiazepino[7′,6′-5,4]thiopheno[3,2-d]pyrimidin-6-one]: the “PKD inhibition, in words” value in data set [2] was “only weak inhibitory effect”. Moreover, in data set [2] (setting [6]), the half-maximal inhibitory concentration (IC50) worked out at 25300 nM. Also, the “stability in protic solvents” value in [3] was “spontaneously degrade in protic solvents”.
For the molecule `O=C1NCCSc2c1sc1ccc(O)cc21` [kb-NB142-70, 3,4-Dihydro-9-hydroxy-[1]benzothieno[2,3-f]-1,4-thiazepin-5(2H)-one], the “cellular IC50 fold lower than CID755673” value on PKD1 [1] is recorded as 5 fold. Moreover, the IC50 on PKD1 [1] was 2200 nM; at CAK (CDK7), 12 ± 0.6 µM; at PLK2, 39 ± 3.4 µM; in data set [2] (setting [5]), 28.3 ± 2.3 nM; at PLK1, 17 ± 7.7 µM; in the data set with AKT it was more than 100 µM. Besides, the “fold more potent than CID755673 (in vitro PKD1 IC50)” value in data set [2] is approximately 7 fold.
Regarding `O=C1NCCCc2c1[nH]c1ccc(O)cc21` [kb-NB123-57, 3,4,5,10-Tetrahydro-7-hydroxy-azepino[3,4-b]indol-1(2H)-one], the IC50 was more than 50000 nM against PKD1 [1]; 2140 ± 120 nM against PKD1 [4]; 39.2 ± 10.2 µM at CAK (CDK7); more than 100 µM at PLK2; 130 nM in data set [2] (setting [5]); more than 100 µM on PLK1. Besides, the 50% inhibitory concentration (IC50) in the data set with AKT is more than 100 µM. The “cellular PKD1 inhibition, in words” value at PKD1 [1] (PMA-induced PKD1 autophosphorylation at S916, LNCaP) was “no significant cellular activity; also recorded: weaker inhibition”.
Regarding `COc1ccc2sc3c(c2c1)SCCNC3=O` [kb-NB165-09, 3,4-Dihydro-9-methoxy-[1]benzothieno[2,3-f]-1,4-thiazepin-5(2H)-one], the concentration for half-maximal inhibition (IC50) against PKD1 [1] was 3100 ± 500 nM; on CAK (CDK7), 17.1 ± 13.6 µM; on PLK2, more than 50 µM; in data set [2] (setting [5]), 82.5 ± 4.6 nM; on PLK1 it was more than 50 µM; in the data set on AKT it was more than 50 µM.
`O=C1NCCCSc2c1sc1ccc(O)cc21` [kb-NB165-92, 2,3,4,5-Tetrahydro-10-hydroxybenzo[b]thieno[2,3-f]-1,5-thiazocin-6-one]: the IC50 is 2600 nM and 2560 nM against PKD1 [1]; 11 ± 3.3 µM at CAK (CDK7); 28 ± 3.1 µM at PLK2; 111 ± 6 nM in [2] (setting [5]); 13 ± 7.7 µM on PLK1; more than 50 µM in the data set on AKT.
